This is an account of results in patent US20150224164A1, “TREATMENT OF AUTISM SPECTRUM DISORDERS USING GLYCYL-L-2-METHYLPROLYL-L-GLUMATIC ACID” (Neuren Pharmaceuticals Limited, priority 2013, published 2015).

One data set concerns MeCP2 knock-out mice. The note with it: MeCP2 knock-out model; cited from earlier work.
Data set [1] concerns cortical neurons injured with okadaic acid. Description: In vitro neuroprotection, cortical cultures injured with okadaic acid (MTT). The format is cell-based, rat. The note with it: 10 μM; okadaic acid injury; 24 hours incubation; MTT-assay. On the procedure:
A dam was sacrificed by CO2-treatment, and then was prepared for caesarean section. After surgery, the embryos were removed from their amniotic sacs and decapitated. The heads were placed on ice in DMEM/F12 medium for striatum and PBS+0.65% D(+)-glucose for cortex.
The two cortical hemispheres were carefully removed by spatula from the whole brain with the ventral side facing upside into a PBS+0.65% D(+)-glucose containing petri dish. Forceps were put into the rostral part (near B. olfactorius) of the cortex in order to fix the tissue and two lateral-sagittal oriented cuts were made to remove the […] and entorhinal cortices. […]
The cells were triturated once with a glass Pasteur pipette in 1 ml of Neurobasal/B27 medium and subsequently twice by using a 1 ml insulin syringe with a 22 gauge needle. […] Cells were counted and adjusted to 50,000 cells per 60 μl. […]
To cause toxic injury to neurons, we exposed neurons to 1:100 parts of okadaic acid at concentrations of 30 nM or 100 nM and 0.5 mM 3-nitropropionic acid (for cerebellar microexplants only). […] The survival rate was determined by a colorimetric end-point MTT-assay at 595 nm in a multi-well plate reader. For the cerebellar microexplants four windows (field of 0.65 mm^2) with highest cell density were chosen and cells displaying neurite outgrowth were counted.

Data set [2] in a line: Pharmacokinetics after intravenous bolus injection. The format is in vivo, rat. The protocol: Adult male Wistar rats weighing between 180 and 240 g were used to determine the pharmacokinetics of GPE and G2MePE. To facilitate intravenous bolus injections and blood sampling, all rats were surgically implanted with an indwelling jugular venous cannula under halothane anesthesia three days before the experiment. Groups of six rats were given a single intravenous bolus injection of either 30 mg/kg GPE or 10 mg/kg G2MePE dissolved in 0.1M succinate buffer (pH 6.5). Blood samples (about 220 μl each) were collected into heparinized tubes containing Sigma protease inhibitor cocktail for mammalian tissues at 10 and 0 min before injection of either GPE or G2MePE, and 1, 2, 4, 8, 16, 32, 64 and 128 min after injection of either GPE or G2MePE. The samples were centrifuged at 3000 g for 15 min at 4° C. and the plasma removed and stored at −80° C. until extraction and assay by either radioimmunoassay (“RIA”) or reverse phase HPLC. The RIA and HPLC methods used were conventional.
The k and half-life (t1/2) were calculated from the slope of the linear regression line in the elimination phase of the semi-logarithmic plot of plasma concentration versus time as: Log C=−kt/2.3+log C0. Results were expressed as mean±standard error.

Take `NCC(=O)N1CCC[C@H]1C(=O)N[C@@H](CCC(=O)O)C(=O)O` [GPE, glycyl-L-prolyl-L-glutamic acid, reference compound]: the “life span and neuronal function” value with MeCP2 knock-out mice is “prolong life and increase neuronal function”. In addition, the neuroprotection in data set [1] was 64%. In data set [2] (in vivo and in vitro), the degradation entry is on record as “rapidly degraded”. For the same compound, the first order rate constant in data set [2] (single i.v. bolus, GPE 30 mg/kg, G-2-MePE 10 mg/kg) was 0.15 ± 0.014 min⁻¹. In data set [2] (single i.v. bolus, GPE 30 mg/kg, G-2-MePE 10 mg/kg, mean±standard error), this compound had a peak plasma concentration of 40 ± 10.8 µg/mL.
